From patent publication US12655116B2, “Substituted isophthalic acid diamides” (Bayer Aktiengesellschaft, priority 2020, dated 2026)

Columns and labels:
PHBPU [1] = assay: Post-emergence herbicidal action against PHBPU; format: in vivo, Pharbitis purpurea; settings: dosage 20 g/ha
In short: (§1)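 Herbicidal action is a visual percentage rating (0% = as untreated control, 100% = plants dead) made roughly 3 weeks after treatment. Plants were grown in sandy loam in the greenhouse and treated at the one-leaf stage, 2 to 3 weeks post-sowing. Treatment was a foliar spray of wettable-powder or emulsion-concentrate formulations at 600 to 800 l/ha water plus 0.2% wetting agent.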

AMARE [2] = assay: Post-emergence herbicidal action against AMARE; format: in vivo, Amaranthus retroflexus; settings: 20 g/ha, visual assessment about 3 weeks after treatment, 100% = plants have died, 0% = like control plants
In short: as §1

VERPE [3] = assay: Pre-emergence herbicidal action against VERPE; format: in vivo, Veronica persica
In short: (§2)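 Sandy loam pots, seeds covered with soil, then surface-treated with WP or EC formulations at 600–800 l/ha water plus 0.2% wetting agent. Greenhouse, 3 weeks. Percent damage vs untreated controls.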

SETVI [4] = assay: Post-emergence herbicidal action against SETVI; format: in vivo, Setaria viridis; settings: dosage 20 g/ha
In short: as §1

VIOTR [5] = assay: Post-emergence herbicidal action against VIOTR; format: in vivo, Viola tricolor
In short: as §1

ECHCG [6] = assay: Pre-emergence herbicidal action against ECHCG; format: in vivo, Echinochloa crus-galli
In short: as §2

ABUTH [7] = assay: Post-emergence herbicidal action against ABUTH; format: in vivo, Abutilon theophrasti; settings: visual assessment about 3 weeks after treatment vs untreated controls
In short: as §1

MATIN [8] = assay: Post-emergence herbicidal action against MATIN; format: in vivo, Matricaria inodora; settings: dosage 20 g/ha
In short: as §1

ABUTH [9] = assay: Pre-emergence herbicidal action against ABUTH; format: in vivo, Abutilon theophrasti
In short: as §2

MATIN [10] = assay: Pre-emergence herbicidal action against MATIN; format: in vivo, Matricaria inodora
In short: as §2

VERPE [11] = assay: Post-emergence herbicidal action against VERPE; format: in vivo, Veronica persica
In short: as §1

PHBPU [12] = assay: Pre-emergence herbicidal action against PHBPU; format: in vivo, Pharbitis purpurea; settings: dosage 80 g/ha
In short: as §2

POLCO = assay: Pre-emergence herbicidal action against POLCO; format: in vivo, Polygonum convolvulus; settings: dosage 80 g/ha
In short: as §2

VIOTR [13] = assay: Pre-emergence herbicidal action against VIOTR; format: in vivo, Viola tricolor
In short: as §2

ALOMY [14] = assay: Pre-emergence herbicidal action against ALOMY; format: in vivo, Alopecurus myosuroides
In short: as §2

SETVI [15] = assay: Pre-emergence herbicidal action against SETVI; format: in vivo, Setaria viridis
In short: as §2

AMARE [16] = assay: Pre-emergence herbicidal action against AMARE; format: in vivo, Amaranthus retroflexus
In short: as §2

ECHCG [17] = assay: Post-emergence herbicidal action against ECHCG; format: in vivo, Echinochloa crus-galli
In short: as §1

AVEFA = assay: Pre-emergence herbicidal action against AVEFA; format: in vivo, Avena fatua
In short: as §2

ALOMY [18] = assay: Post-emergence herbicidal action against ALOMY; format: in vivo, Alopecurus myosuroides; settings: visual assessment about 3 weeks after treatment vs untreated controls
In short: as §1

[19] = 80 g/ha, scored visually after 3 weeks vs untreated controls (100% = plants have died, 0% = like control plants)
[20] = 20 g/ha, scored visually after 3 weeks, 100% = plants have died, 0% = like control plants

CCCNC(=O)c1c(C(F)F)ccc(C(=O)Nc2nnnn2CC)c1C [Example 2-344]
pest or weed control at 20 g/ha (PHBPU [1]; Ipomoea purpurea, 504 h): 80% | pest or weed control at 20 g/ha (AMARE [2]; Amaranthus retroflexus, 504 h): 100% | pest or weed control at 80 g/ha (VERPE [3]; Veronica persica, 504 h, dosage 80 g/ha): 80% | pest or weed control at 20 g/ha (SETVI [4]; Setaria viridis, 504 h): 80% | pest or weed control at 5 g/ha (VIOTR [5]; Viola tricolor, 504 h, 5 g/ha): 90% | pest or weed control at 20 g/ha (VIOTR [5]; Viola tricolor, 504 h, 20 g/ha): 100% | pest or weed control at 20 g/ha (ECHCG [6]; Echinochloa crus-galli, 504 h, 20 g/ha): 90% | pest or weed control at 80 g/ha (ECHCG [6]; Echinochloa crus-galli, 504 h, 80 g/ha): 100% | pest or weed control at 5 g/ha (ABUTH [7]; Abutilon theophrasti, 504 h, dosage 5 g/ha): 90% | pest or weed control at 20 g/ha (ABUTH [7]; Abutilon theophrasti, 504 h, dosage 20 g/ha): 90% | pest or weed control at 20 g/ha (MATIN [8]; Tripleurospermum inodorum, 504 h): 80% | pest or weed control at 80 g/ha (ABUTH [9]; Abutilon theophrasti, 504 h, 80 g/ha, scored visually after 3 weeks vs untreated controls (100% = plants have died, 0% = like control plants)): 100% | pest or weed control at 20 g/ha (ABUTH [9]; Abutilon theophrasti, 504 h, dosage 20 g/ha, scored visually after 3 weeks vs untreated controls, 100% = plants have died, 0% = like control plants, read-out: Pre-emergence action against ABUTH (herbicidal activity in percent)): 100% | pest or weed control at 20 g/ha (MATIN [10]; Tripleurospermum inodorum, 504 h, dosage 20 g/ha): 100% | pest or weed control at 80 g/ha (MATIN [10]; Tripleurospermum inodorum, 504 h, dosage 80 g/ha): 100% | pest or weed control at 20 g/ha (VERPE [11]; Veronica persica, 504 h, 20 g/ha): 80% | pest or weed control at 80 g/ha (PHBPU [12]; Ipomoea purpurea, 504 h): 90% | pest or weed control at 80 g/ha (POLCO; Fallopia convolvulus, 504 h): 90% | pest or weed control at 20 g/ha (VIOTR [13]; Viola tricolor, 504 h, dosage 20 g/ha): 80% | pest or weed control at 80 g/ha (VIOTR [13]; Viola tricolor, 504 h, dosage 80 g/ha): 100% | pest or weed control at 80 g/ha (ALOMY [14]; Alopecurus myosuroides, 504 h, 80 g/ha, pre-emergence, scored visually after 3 weeks vs untreated controls (100% = plants have died, 0% = like control plants)): 100% | pest or weed control at 20 g/ha (ALOMY [14]; Alopecurus myosuroides, pre-emergence, 504 h, 20 g/ha, scored visually after 3 weeks, 100% = plants have died, 0% = like control plants): 80% | pest or weed control at 80 g/ha (SETVI [15]; Setaria viridis, 504 h, dosage 80 g/ha): 80% | pest or weed control at 20 g/ha (AMARE [16]; Amaranthus retroflexus, 504 h, 20 g/ha, scored visually after 3 weeks vs untreated controls, 100% = plants have died, 0% = like control plants): 100% | pest or weed control at 80 g/ha (AMARE [16]; Amaranthus retroflexus, 504 h, 80 g/ha, scored visually after 3 weeks vs untreated controls, 100% = plants have died, 0% = like control plants): 100% | pest or weed control at 5 g/ha (ECHCG [17]; Echinochloa crus-galli, 504 h, dosage 5 g/ha): 80% | pest or weed control at 20 g/ha (ECHCG [17]; Echinochloa crus-galli, 504 h, dosage 20 g/ha): 90% | pest or weed control at 80 g/ha (AVEFA; Avena fatua, 504 h, 80 g/ha, pre-emergence): 80% | pest or weed control at 5 g/ha (ALOMY [18]; Alopecurus myosuroides, 504 h, dosage 5 g/ha): 80% | pest or weed control at 20 g/ha (ALOMY [18]; Alopecurus myosuroides, 504 h, dosage 20 g/ha): 90%

CCc1c(C(=O)Nc2nnnn2C)ccc(C(F)(F)F)c1C(=O)NC(C)C1CC1 (stereo not drawn) [Example 1-341]
Post-emergence action against PHBPU in % (PHBPU [1]): 80% | Post-emergence action at 20 g/ha against AMARE in % (AMARE [2]): 100% | Pre-emergence action against VERPE in % (VERPE [3]; dosage 20 g/ha): 80% | Pre-emergence action against VERPE in % (VERPE [3]; dosage 80 g/ha): 90% | Post-emergence action against SETVI in % (SETVI [4]): 80% | Post-emergence action against VIOTR in % (VIOTR [5]; 20 g/ha): 80% | Pre-emergence action against ECHCG in % (ECHCG [6]; 80 g/ha): 90% | Post-emergence action against ABUTH in % (ABUTH [7]; dosage 20 g/ha): 80% | Post-emergence action against MATIN in % (MATIN [8]): 80% | Pre-emergence action against ABUTH (herbicidal activity) (ABUTH [9]; [19]): 100% | Pre-emergence action against ABUTH (herbicidal activity in percent) (ABUTH [9]; dosage 20 g/ha, scored visually after 3 weeks vs untreated controls, 100% = plants have died, 0% = like control plants): 100% | Pre-emergence action against MATIN in % (MATIN [10]; dosage 20 g/ha): 100% | Pre-emergence action against MATIN in % (MATIN [10]; dosage 80 g/ha): 100% | Post-emergence action against VERPE in % (VERPE [11]; 5 g/ha): 80% | Post-emergence action against VERPE in % (VERPE [11]; 20 g/ha): 90% | Pre-emergence action against PHBPU in % (PHBPU [12]): 80% | Pre-emergence action against POLCO in % (POLCO): 80% | Pre-emergence action against VIOTR in % (VIOTR [13]; dosage 20 g/ha): 100% | Pre-emergence action against VIOTR in % (VIOTR [13]; dosage 80 g/ha): 100% | Pre-emergence action against ALOMY (ALOMY [14]; [20]): 80% | Pre-emergence action against ALOMY (herbicidal activity) (ALOMY [14]; 80 g/ha, pre-emergence, scored visually after 3 weeks vs untreated controls (100% = plants have died, 0% = like control plants)): 90% | Pre-emergence action against SETVI in % (SETVI [15]; dosage 20 g/ha): 80% | Pre-emergence action against SETVI in % (SETVI [15]; dosage 80 g/ha): 100% | Pre-emergence action against AMARE in % (AMARE [16]; 20 g/ha, scored visually after 3 weeks vs untreated controls, 100% = plants have died, 0% = like control plants): 100% | Pre-emergence action against AMARE in % (AMARE [16]; [19]): 100% | Post-emergence action against ECHCG in % (ECHCG [17]; dosage 5 g/ha): 80% | Post-emergence action against ECHCG in % (ECHCG [17]; dosage 20 g/ha): 90% | Pre-emergence action against AVEFA (AVEFA; [20]): 80% | Pre-emergence action against AVEFA in % (AVEFA; 80 g/ha, pre-emergence): 90% | Post-emergence action against ALOMY in % (ALOMY [18]; dosage 20 g/ha): 80%
